Reference: PubChem BioAssay (NCI)
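Exposure lasted 48 hours, with cells grown in 96-well plates and compounds tested at five concentrations. GI50 is the concentration that inhibits growth by half. TGI denotes the concentration required for complete inhibition of growth.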

Legend:
Experiment in all cases: NCI anticancer screen, dose series, 48 h
[1] = test system: OVCAR-3 ovarian
[2] = test system: MDA-MB-231 breast
[3] = test system: T-47D breast
[4] = test system: SF-268 CNS
[5] = test system: TK-10 renal
[6] = test system: UO-31 renal
[7] = test system: ACHN renal
[8] = test system: SW-620 colon
[9] = test system: IGROV1 ovarian
[10] = test system: SN12C renal
[11] = test system: RPMI-8226 leukemia
[12] = test system: HCT-116 colon
[13] = test system: OVCAR-5 ovarian
[14] = test system: SNB-75 CNS
[15] = test system: OVCAR-8 ovarian
[16] = test system: SK-MEL-28 melanoma
[17] = test system: SK-MEL-5 melanoma
[18] = test system: HOP-92 NSCLC
[19] = test system: UACC-62 melanoma
[20] = test system: SK-MEL-2 melanoma
[21] = test system: KM12 colon
[22] = test system: SF-295 CNS
[23] = test system: M14 melanoma
[24] = test system: CCRF-CEM leukemia
[25] = test system: OVCAR-4 ovarian
[26] = test system: CAKI-1 renal
[27] = test system: HL-60(TB) leukemia
[28] = test system: NCI-H23 lung
[29] = test system: 786-0 renal
[30] = test system: MCF7 breast
[31] = test system: PC-3 prostate
[32] = test system: MOLT-4 leukemia
[33] = test system: HT29 colon
[34] = test system: MDA-MB-435
[35] = test system: UACC-257 melanoma
[36] = test system: BT-549 breast
[37] = test system: HS 578T breast
[38] = test system: NCI-H226 lung
[39] = test system: NCI-H460 lung
[40] = test system: SF-539 CNS
[41] = test system: EKVX NSCLC
[42] = test system: MDA-MB-468 breast
[43] = test system: NCI-H522 lung
[44] = test system: NCI/ADR-RES ovarian
[45] = test system: LOX IMVI melanoma
[46] = test system: SNB-19 CNS
[47] = test system: DU-145 prostate
[48] = test system: HCC-2998 colon
[49] = test system: A498 renal
[50] = test system: U251 CNS
[51] = test system: MALME-3M melanoma
[52] = test system: COLO 205 colon
[53] = test system: SK-OV-3 ovarian
[54] = test system: SR leukemia
[55] = test system: K-562 leukemia
[56] = test system: HCT-15 colon
[57] = test system: A549 NSCLC
[58] = test system: HOP-62 NSCLC
[59] = test system: RXF 393 renal

Work on `N/C(=N\c1nc2ccccc2s1)NC(=O)Nc1ccccc1Br` yielded a GI50 [1] of 0.102 µM, a TGI [1] of 1.34 µM and a GI50 [2] of 0.148 µM. The TGI [2] was 1.43 µM, the GI50 [3] was 0.0513 µM and the TGI [3] was greater than 100 µM. The GI50 [4] was 0.801 µM, the TGI [4] was greater than 35 µM and the TGI [5] was greater than 28.4 µM. It also gave a GI50 [6] of 0.184 µM, a TGI [6] greater than 37.2 µM and a GI50 [7] of 0.244 µM. For the same compound, the GI50 [8] was 0.116 µM, the TGI [8] was greater than 38.1 µM and the GI50 [9] was 0.164 µM. It also gave a TGI [9] greater than 35 µM, a GI50 [10] of 0.194 µM and a GI50 [11] of 0.149 µM. The GI50 [12] was 0.115 µM, the TGI [12] was 3.63 µM and the GI50 [13] was 0.22 µM. It also gave a GI50 [14] of 0.0583 µM, a GI50 [15] of 0.148 µM and a GI50 [16] of 1.43 µM. It also gave a TGI [16] greater than 100 µM, a GI50 [17] of 0.103 µM and a TGI [17] of 0.697 µM. It also gave a TGI [18] greater than 28.1 µM, a GI50 [19] of 0.0882 µM and a TGI [19] greater than 35.1 µM. It also gave a GI50 [20] of 0.0399 µM, a TGI [20] of 10.8 µM and a GI50 [21] of 0.125 µM. For the same compound, the GI50 [22] was 0.104 µM, the TGI [22] was 3.86 µM and the GI50 [23] was 0.0768 µM. It also gave a GI50 [24] of 0.118 µM, a GI50 [25] of 6.21 µM and a TGI [25] greater than 23.5 µM. The GI50 [26] was 0.0925 µM, the GI50 [27] was 0.0893 µM and the GI50 [28] was 0.146 µM. For the same compound, the TGI [28] was greater than 20.6 µM, the GI50 [29] was 0.17 µM and the GI50 [30] was 0.119 µM. For the same compound, the TGI [30] was greater than 91.6 µM, the GI50 [31] was 0.162 µM and the TGI [31] was greater than 53.1 µM. It also gave a GI50 [32] of 0.165 µM, a TGI [32] greater than 33.8 µM and a GI50 [33] of 0.0921 µM. For the same compound, the TGI [33] was 0.286 µM, the GI50 [34] was less than 0.0372 µM and the TGI [34] was 0.0767 µM. It also gave a TGI [35] greater than 100 µM, a GI50 [36] of 0.256 µM and a TGI [36] of 7.18 µM. It also gave a GI50 [37] of 0.0798 µM, a TGI [37] greater than 25.5 µM and a GI50 [38] of 0.723 µM. The TGI [38] was 8.73 µM, the GI50 [39] was 0.116 µM and the GI50 [40] was 0.0693 µM. For the same compound, the TGI [40] was 0.195 µM, the GI50 [41] was 0.183 µM and the TGI [41] was greater than 76.9 µM. It also gave a GI50 [42] of 0.419 µM, a TGI [42] of 1.66 µM and a GI50 [43] of less than 0.0485 µM. For the same compound, the TGI [43] was 0.169 µM, the GI50 [44] was 0.0101 µM and the TGI [44] was 0.0406 µM. For the same compound, the GI50 [45] was 0.235 µM, the TGI [45] was 8.74 µM and the GI50 [46] was 0.178 µM. It also gave a TGI [46] greater than 43.1 µM, a GI50 [47] of 0.14 µM and a GI50 [48] of 0.192 µM. It also gave a TGI [48] of 3.39 µM, a GI50 [49] greater than 38.2 µM and a TGI [49] greater than 58.4 µM. It also gave a GI50 [50] of 0.116 µM, a GI50 [51] of 0.151 µM and a TGI [51] greater than 25 µM. The GI50 [52] was 0.0964 µM, the TGI [52] was 0.328 µM and the GI50 [53] was 0.188 µM. It also gave a TGI [53] greater than 32.2 µM, a TGI [54] greater than 41.8 µM and a GI50 [55] of 0.0753 µM. The TGI [55] was greater than 100 µM, the GI50 [56] was 0.116 µM and the GI50 [57] was 0.282 µM. The GI50 [58] was 0.145 µM and the TGI [58] was greater than 32 µM.
For `c1ccc(CSc2nnc(-c3ccc4nc(-c5ccccc5)[nH]c4c3)o2)cc1`, the GI50 [1] was 15.9 µM, the TGI [1] was 33.6 µM and the GI50 [2] was 16.8 µM. The TGI [2] was 34.7 µM, the GI50 [3] was 3.6 µM and the TGI [3] was 19.1 µM. It also gave a GI50 [4] of 14.1 µM, a TGI [4] of 38.8 µM and a GI50 [5] of 14.8 µM. It also gave a TGI [5] of 29.7 µM, a GI50 [6] of 11.3 µM and a TGI [6] of 23.7 µM. The GI50 [7] was 14.3 µM, the TGI [7] was 28 µM and the GI50 [8] was 17.8 µM. It also gave a TGI [8] of 40.3 µM, a GI50 [9] of 20.4 µM and a TGI [9] of 46 µM. It also gave a GI50 [10] of 12.1 µM, a TGI [10] of 25.7 µM and a GI50 [11] of 7.03 µM. The TGI [11] was greater than 100 µM, the GI50 [12] was 11.9 µM and the TGI [12] was 25.7 µM. The GI50 [13] was 24.1 µM, the TGI [13] was 97.7 µM and the GI50 [14] was 10.8 µM. The TGI [14] was 24.8 µM, the GI50 [15] was 14.6 µM and the TGI [15] was 30.4 µM. For the same compound, the GI50 [16] was 14.7 µM, the TGI [16] was 33 µM and the GI50 [17] was 7.25 µM. The TGI [17] was greater than 100 µM, the GI50 [18] was 13.3 µM and the TGI [18] was 39.9 µM. It also gave a GI50 [19] of 13.8 µM, a TGI [19] of 31.4 µM and a GI50 [20] of 17 µM. It also gave a TGI [20] of 64.1 µM, a GI50 [21] of 29.4 µM and a TGI [21] greater than 100 µM. It also gave a GI50 [22] of 10.4 µM, a TGI [22] of 24 µM and a GI50 [23] of 14.6 µM. The TGI [23] was 36.5 µM, the GI50 [24] was 8.83 µM and the TGI [24] was greater than 100 µM. The GI50 [25] was 11.1 µM, the TGI [25] was 23.3 µM and the GI50 [26] was 10.5 µM. The TGI [26] was 22.2 µM, the GI50 [27] was 24.2 µM and the TGI [27] was greater than 100 µM. It also gave a GI50 [28] of 22.9 µM, a TGI [28] of 73.5 µM and a GI50 [29] of 8.83 µM. For the same compound, the TGI [29] was 22.9 µM, the GI50 [30] was 11.1 µM and the TGI [30] was 26.4 µM. The GI50 [31] was 11.3 µM, the TGI [31] was 32.3 µM and the GI50 [32] was 5.75 µM. The TGI [32] was greater than 100 µM, the GI50 [33] was 6.24 µM and the TGI [33] was greater than 100 µM. It also gave a GI50 [34] of 12 µM, a TGI [34] of 28.3 µM and a GI50 [35] of 23.6 µM. It also gave a TGI [35] of 85.2 µM, a GI50 [36] of 12.8 µM and a TGI [36] of 30.2 µM. For the same compound, the GI50 [59] was 4.77 µM, the TGI [59] was 22.6 µM and the GI50 [37] was 18.8 µM. For the same compound, the TGI [37] was 57.2 µM, the GI50 [38] was 12.6 µM and the TGI [38] was 37.4 µM. The GI50 [39] was 12.3 µM, the TGI [39] was 27.5 µM and the GI50 [40] was 11.3 µM. The TGI [40] was 23.4 µM, the GI50 [41] was 14.5 µM and the TGI [41] was greater than 100 µM. The GI50 [42] was 7.57 µM, the TGI [42] was 27.7 µM and the GI50 [43] was 12.1 µM. The TGI [43] was 39 µM, the GI50 [44] was 11.1 µM and the TGI [44] was 37.3 µM. The GI50 [45] was 15.8 µM, the TGI [45] was 34 µM and the GI50 [46] was 14.3 µM. For the same compound, the TGI [46] was 30 µM, the GI50 [47] was 16.2 µM and the TGI [47] was 37 µM. It also gave a GI50 [48] of 34.8 µM, a TGI [48] greater than 100 µM and a GI50 [49] of 12.4 µM. For the same compound, the TGI [49] was 25.4 µM, the GI50 [50] was 13.8 µM and the TGI [50] was 29.8 µM. For the same compound, the GI50 [51] was 12.5 µM, the TGI [51] was 28.3 µM and the GI50 [52] was 32.6 µM. It also gave a TGI [52] greater than 100 µM, a GI50 [53] of 18.7 µM and a TGI [53] of 48.5 µM. The GI50 [54] was 22.4 µM, the TGI [54] was greater than 100 µM and the GI50 [55] was 8.05 µM. The TGI [55] was greater than 100 µM, the GI50 [56] was 8.29 µM and the TGI [56] was 28.8 µM. It also gave a GI50 [57] of 12 µM, a TGI [57] of 28.7 µM and a GI50 [58] of 20.2 µM. For the same compound, the TGI [58] was 44.8 µM.
